Patent publication US7417041B2, “Imidazopyrimidines as transforming growth factor (TGF) inhibitors” (Pfizer Inc., priority 2003, dated 2008)

Molecular target: T1, TβRI (Homo sapiens, UniProt P36897)
T1 construct: using either the kinase domain of ALK5 with Smad3 as substrate; GST
T1 sequence (P36897 205-495 limits assumed): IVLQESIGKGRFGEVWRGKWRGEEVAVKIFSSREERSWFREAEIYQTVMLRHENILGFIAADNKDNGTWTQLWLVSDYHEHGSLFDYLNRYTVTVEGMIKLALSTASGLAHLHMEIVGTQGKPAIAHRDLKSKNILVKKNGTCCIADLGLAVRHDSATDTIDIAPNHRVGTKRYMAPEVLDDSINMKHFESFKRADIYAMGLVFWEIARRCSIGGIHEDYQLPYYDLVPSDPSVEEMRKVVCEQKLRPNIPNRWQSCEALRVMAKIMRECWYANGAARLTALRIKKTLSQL
Assay: ALK-5 (TβRI) kinase assay
Assay type: biochemical
Conditions: read-out: in vitro IC50 value against TβRI
Experimental: ALK-5 (TβRI) Kinase Assay Protocol
The kinase assays were performed with 65 nM GST-ALK5 and 84 nM GST-Smad3 in 50 mM HEPES, 5 mM MgCl2, 1 mM CaCl2, 1 mM dithiothreitol, and 3_M ATP. Reactions were incubated with 0.5_Ci of [33 P]ATP for 3 h at 30° C. Phosphorylated protein was captured on P-81 paper (Whatman, Maidstone, England), washed with 0.5% phosphoric acid, and counted by liquid scintillation. Alternatively, Smad3 or Smad1 protein was also coated onto FlashPlate Sterile Basic Microplates (PerkinElmer Life Sciences, Boston, Mass.). Kinase assays were then performed in Flash-Plates with same assay conditions using either the kinase domain of ALK5 with Smad3 as substrate or the kinase domain of ALK6 (BMP receptor) with Smad1 as substrate. Plates were washed three times with phosphate buffer and counted by TopCount (Packard Bio-science, Meriden, Conn.). (Laping, N. J. et al. Molecular Pharmacology 62:58-64 (2002)).

IC50: 253 nM
Compound: Cc1cccc(-c2c(-c3ccc4nnn(C)c4c3)nc3ncccn23)n1 [Example 15, 1-Methyl-6-[3-(6-methyl-pyridin-2-yl)-imidazo[1,2-a]pyrimidin-2-yl]-1H-benzotriazole]
